Laboratory results published in patent US9394282B2, “Pyrazole carboxamides as Janus kinase inhibitors” (Merck Sharp & Dohme Corp., priority 2011, dated 2016).

Columns and labels:
JAK1 = JAK1 (Homo sapiens (Human), UniProt P23458); test: Jak biochemical HTRF assay, JAK1; settings: recombinant purified GST-tagged catalytic domain; HTRF format; [ATP] 31.8 μM
Source text: (§1) Jak Biochemical HTRF Assay Protocol
(§2) Subsequent reagent additions employed an Agilent Bravo.

JAK2 = JAK2 (Homo sapiens (Human), UniProt O60674); test: Jak biochemical HTRF assay, JAK2; settings: recombinant purified GST-tagged catalytic domain; HTRF format; [ATP] 8.5 μM
Sequence of JAK2 (O60674 849-1124): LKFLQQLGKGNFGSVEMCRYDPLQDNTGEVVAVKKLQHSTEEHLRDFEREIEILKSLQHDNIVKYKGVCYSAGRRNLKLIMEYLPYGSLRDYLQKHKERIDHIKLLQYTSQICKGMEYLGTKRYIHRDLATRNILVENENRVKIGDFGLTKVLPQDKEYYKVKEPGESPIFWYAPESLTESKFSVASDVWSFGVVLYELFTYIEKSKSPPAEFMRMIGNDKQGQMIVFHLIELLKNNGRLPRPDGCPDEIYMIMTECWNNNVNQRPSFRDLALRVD
Source text: as §1, §2

Sequence of JAK1 (P23458 875-1153): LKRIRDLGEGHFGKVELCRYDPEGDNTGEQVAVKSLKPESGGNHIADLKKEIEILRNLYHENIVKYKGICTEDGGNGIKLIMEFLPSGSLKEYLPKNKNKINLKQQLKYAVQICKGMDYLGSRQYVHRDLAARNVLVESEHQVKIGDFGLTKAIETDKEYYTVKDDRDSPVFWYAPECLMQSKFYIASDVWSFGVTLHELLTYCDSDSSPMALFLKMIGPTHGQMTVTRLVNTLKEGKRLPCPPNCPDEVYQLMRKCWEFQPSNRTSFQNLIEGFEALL

## CC1(COC(=O)N2CC[C@@H](C#N)C(n3cc(C(N)=O)c(Nc4ccc(F)cc4)n3)C2)CC1 (mixture of isomers) [Example 5-72, (1-methylcyclopropyl)methyl (3S,4R and 3R,4S)-3-{4-carbamoyl-3-[(4-fluorophenyl)amino]-1H-pyrazol-1-yl}-4-cyanopiperidine-1-carboxylate]
JAK1
  IC50: 5 nM
JAK2
  IC50: 69 nM

## CC(OC(=O)N1CC[C@@H](C#N)C(n2cc(C(N)=O)c(Nc3ccc(F)cc3)n2)C1)C1CC1 (mixture of isomers) [Example 5-73, 1-cyclopropylethyl (3S,4R and 3R,4S)-3-{4-carbamoyl-3-[(4-fluorophenyl)amino]-1H-pyrazol-1-yl}-4-cyanopiperidine-1-carboxylate]
JAK1
  IC50: 6 nM
JAK2
  IC50: 77 nM

## N#C[C@@H]1CCN(C(=O)OCC(F)(F)CO)CC1n1cc(C(N)=O)c(Nc2ccc(F)cc2)n1 (mixture of isomers) [Example 5-74, 2,2-difluoro-3-hydroxypropyl (3S,4R and 3R,4S)-3-{4-carbamoyl-3-[(4-fluorophenyl)amino]-1H-pyrazol-1-yl}-4-cyanopiperidine-1-carboxylate]
JAK1
  IC50: 1 nM
JAK2
  IC50: 14 nM

## CN(C)CC(C)(C)COC(=O)N1CC[C@@H](C#N)C(n2cc(C(N)=O)c(Nc3ccc(F)cc3)n2)C1 (mixture of isomers) [Example 5-75, 3-(dimethylamino)-2,2-dimethylpropyl (3S,4R and 3R,4S)-3-{4-carbamoyl-3-[(4-fluorophenyl)amino]-1H-pyrazol-1-yl}-4-cyanopiperidine-1-carboxylate]
JAK1
  IC50: 16 nM
JAK2
  IC50: 444 nM

## CCOC(=O)N1CC[C@@H](C#N)C(n2cc(C(N)=O)c(Nc3ccc(F)cc3)n2)C1 (mixture of isomers) [Example 5-76, ethyl (3S,4R and 3R,4S)-3-{4-carbamoyl-3-[(4-fluorophenyl)ainino]-1H-pyrazol-1-yl}-4-cyanopiperidine-1-carboxylate]
JAK1
  IC50: 5 nM
JAK2
  IC50: 62 nM

## CC(C)COC(=O)N1CC[C@@H](C#N)C(n2cc(C(N)=O)c(Nc3ccc(F)cc3)n2)C1 (mixture of isomers) [Example 5-77, 2-methylpropyl (3S,4R and 3R,4S)-3-{4-carbamoyl-3-[(4-fluorophenyl)amino]-1H-pyrazol-1-yl}-4-cyanopiperidine-1-carboxylate]
JAK1
  IC50: 4 nM
JAK2
  IC50: 76 nM

## CC(C)(C)COC(=O)N1CC[C@@H](C#N)C(n2cc(C(N)=O)c(Nc3ccc(F)cc3)n2)C1 (mixture of isomers) [Example 5-80, 2,2-dimethylpropyl (3S,4R and 3R,4S)-3-{4-carbamoyl-3-[(4-fluorophenyl)amino]-1H-pyrazol-1-yl}-4-cyanopiperidine-1-carboxylate]
JAK1
  IC50: 6 nM
JAK2
  IC50: 145 nM

## N#C[C@@H]1CCN(C(=O)OCc2ccccc2)CC1n1cc(C(N)=O)c(Nc2ccc(F)cc2)n1 (mixture of isomers) [Example 5-82, benzyl (3S,4R and 3R,4S)-3-{4-carbamoyl-3-[(4-fluorophenyl)amino]-1H-pyrazol-1-yl}-4-cyanopiperidine-1-carboxylate]
JAK1
  IC50: 2 nM
JAK2
  IC50: 53 nM

## CCOC(=O)COC(=O)N1CC[C@@H](C#N)C(n2cc(C(N)=O)c(Nc3ccc(F)cc3)n2)C1 (mixture of isomers) [Example 5-84, 2-ethoxy-2-oxoethyl (3S,4R and 3R,4S)-3-{4-carbamoyl-3-[(4-fluorophenyl)amino]-1H-pyrazol-1-yl}-4-cyanopiperidine-1-carboxylate]
JAK1
  IC50: 6 nM
JAK2
  IC50: 187 nM

## CN(C)CCOC(=O)N1CC[C@@H](C#N)C(n2cc(C(N)=O)c(Nc3ccc(F)cc3)n2)C1 (mixture of isomers) [Example 5-86, 2-(dimethylamino)ethyl (3S,4R and 3R,4S)-3-{4-carbamoyl-3-[(4-fluorophenyl)amino]-1H-pyrazol-1-yl}-4-cyanopiperidine-1-carboxylate]
JAK1
  IC50: 9 nM
JAK2
  IC50: 352 nM
